From patent US20100247461A1, “ANTI-INFLAMMATORY COMPLEXES” (Signum Biosciences, Inc., priority 2009, published 2010)
Converted amounts (≈) assume the structure as drawn.

Experiments:
[1] = system: TPA-treated mouse ears (edema, ear thickness); test: TPA mouse ear model of inflammation - edema inhibition; type: in vivo; conditions: topical, 24 hours
[2] = system: TPA-treated mouse ears (erythema, Δa* redness); test: TPA mouse ear model of inflammation - erythema inhibition; type: in vivo; conditions: topical, 24 hours
Experimental: The protocol for measuring erythema inhibition by provided complexes was developed in-house by utilizing the CR-400 chroma meter from Konica Minolta (2). This instrument was used to measure the Δa*redness value from 6 mm biopsy punches taken 24 hours post TPA/compound treatment as described in the edema inhibition section above. […] These values were corrected for the Δa* value of non TPA-treated mouse ears of littermate controls.

[3] = system: MPO (myeloperoxidase), neutrophil marker; test: TPA mouse ear model of inflammation - MPO inhibition (dermal neutrophil infiltration); type: in vivo; conditions: for % MPO Inhibition in the Mouse Ear Inflammation Assay (4% concentration): topical, 24 hours
Experimental: Briefly, we homogenized 6mm biopsy punches taken from both compound-treated ears as well as TPA-treated and non-treated control groups. We quantitated the levels of MPO by a colorimetric reaction that was measured spectrophotometrically. The percent inhibition of neutrophil infiltration by each complex was determined by comparing the average MPO levels in the presence and absence of these compounds. The calculation for percent inhibition of MPO was determined similar to that as described for calculating the percent edema inhibition, see the Edema Inhibition protocol, supra.

[4] = system: MPO activity (neutrophil infiltration) in P. acnes-injected ear; test: P. acnes-induced mouse ear model of inflammation - MPO endpoint; type: in vivo
Experimental: The methods for a model of P. acnes-inflammation are described elsewhere (Nakatsuji et al., J Invest Dermatol, 2008, 128: 2451-2457).
The protocol for inducing inflammation using P. acnes bacterial challenge on the mouse ear was slightly modified from the method described previously (Natatsuji et al., 2008). Briefly, Swiss Webster (ICR, 6-8 weeks old) mouse ears were injected with living P. acnes culture intradermally. An amount of 20 μl aliquots of living P. acnes (ATCC 6919, 3×10^6 CFU) suspended in PBS was intradermally injected in the central portion of the ear. As a control, 20 μl of PBS was injected into control animals.
To assay for inhibition of dermal neutrophil infiltration by AFC complexes, a standard method was used (see Bradley et al., J Invest Dermatol, 1982,78: 206-209; Young et al., J Invest Dermatol, 1983, 80: 48-52; De Young et al, Agents Actions, 1989, 26: 335-41; and Rao et al., Inflammation, 1993, 17: 723-41). Briefly, 6mm biopsy punches taken from both compound-treated ears as well as non-treated control ears were homogenized in 400 μl of 0.5% hexadecyltrimethylammonium bromide in 50 mM potassium phosphate buffer (pH 6.0) using the Fast Prep 24 (MP Biomedicals, Solon, Ohio). Supernatants were assayed for MPO activity using a model EL 340 96-well plate reader (BioTek Instruments, Winooski, Vt.). The percent inhibition of neutrophil infiltration by each AFC complex was determined by comparing the average MPO levels in the presence and absence of these compounds. The percent inhibition of MPO was determined by taking the average MPO activity of compound-treated ears and dividing it by the average MPO activity of 12 ears that only received the P. acnes challenge and subtracting that value from 100%. These values were corrected for the MPO activity of normal, non P. acnes-treated mouse ears of littermate controls. Summary of MPO activity ranges determined from an MPO activity assay for dexamethasone (administered at a dose of 1.6 mg/20 μL), clobetasol (administered at a dose of 0.1 mg/20 μL), salicylic acid (administered at a dose of 0.4 mg/20 μL), AFC (administered at a dose of 0.4 mg/20 μL), AFC-Strontium complex (administered at a dose of 0.4 mg/20 μL) and SFC-disodium are presented in Table 4. “+” indicates a range of 0-20%, “++” indicates a range of 20-40%, and “+++” indicates >40% inhibition.

[5] = system: TPA-treated mouse ears (edema, ear thickness); test: TPA mouse ear model of inflammation - edema inhibition; type: in vivo; conditions: TPA-treated mouse ear, at the dose tested; AFC oil n=1, data not shown
Experimental: In brief, mice were sedated and their ears were treated with 1.2 μg/20 uL TPA (i.e., tetradecanoylphorbol-13-acetate). After 5 minutes, we dosed these TPA-treated ears with a single 8 μg/20 μL dose, a 2 μg/20 μL dose, or both doses, of provided complexes. After 24 hours, the mice were sacrificed and edema was measured by taking micrometer readings of each ear. […] These values were corrected for the thickness of normal, non TPA-treated mouse ears of littermate controls.

[6] = system: mouse skin reepithelialization; test: Mouse wound healing model - skin reepithelialization; type: in vivo
Description: The healing of wounded skin is mediated by epidermal reepithelialization that requires keratinocyte migration. Glucocorticoids are known to inhibit wound healing (Ehrlich et al., Proc Soc Exp Biol Med, 1971, 137: 936-938; Leibovich et al., Am J Pathol, 1975, 78, 71-100). […] The methods for studying mouse skin reepithelialization using both partial and full thickness mouse wound healing models have been described elsewhere (Kim et al. Wound Repair Regen, 2001, 9: 386-390). In brief, for partial thickness wounds, a 3 mm-diameter circle of epidermis is removed from the ventral auricle. The resulting wound is cleansed and dressed with an occlusive polyurethane film. The mouse ears are excised on days 3, 5, 8, and 11 post-operation and fixed in 10% buffered formalin. Following day 8 post-operation, sampling of treated mice is performed to determine completion of healing. For full thickness wounds, mice heads are shaved and depilated prior to excising the skin. The cleaned and dressed wounds are harvested and fixed at days 3, 5, 8 and 10 and fixed in 10% buffered formalin.

[7] = system: Propionibacterium acnes (strain ATCC 6919); test: Inhibition of Propionibacterium acnes growth; type: cell-based; conditions: 72 hours, anaerobic, absorbance 600 nm, 1×10^6 CFU per mL
Experimental: The assay for the inhibition of growth of Propionibacterium acnes bacteria is described elsewhere (Nakatsuji et al., J Invest Dermatol, 2009, 129: 2480-2488). In brief, the strain ATCC 6919 of P. acnes (American Type Culture Collection, Manassas, Va.) was cultured on Brucella agar (R01254, Remel, Lenexa, Kans.) supplemented with 5% (v/v) defibrinated sheep blood, vitamin K (5 mg/ml, Remel, Lenexa, Kans.), and hemin (50 mg/ml, Remel, Lenexa, Kans.), under an anaerobic condition using Gas-Pak (BD, Sparks, Md.) at 37° C. A single colony was inoculated in Reinforced Clostridium Medium (Oxford, Hampshire, England) and cultured at 37° C. under the anaerobic condition. Each of the inventive complexes—AFC-Sr, AFC-Ag and AFC-Zn as well as AFC were dissolved in 100% (v/v) DMSO. Samples of each inventive complex, AFC and a solution of benzoyl peroxide (“BPO”) were then each incubated with an inoculum of P. acnes at a concentration of 1×10^6 CFU per mL in Reinforced Clostridium Medium in a 96-well microplate (100 μL per well) under anaerobic conditions for 72 hours. Samples of each were tested at final concentrations per well of 0.25 μg/mL, 0.5 μg/mL, 1.0 μg/mL, 1.95 μg/mL, 3.9 μg/mL, 7.8 μg/mL, 15.625 μg/mL, 31.25 μg/mL, 62.5 μg/mL, 125 μg/mL, 250μg/mL, and 500 μg/mL. A control well received only 5% (v /v) of DMSO in place of a sample of an inventive complex. After 72 hours incubation under anaerobic conditions, the P. acnes cultures in the 96-well microplate were mixed well and then absorbance readings at 600 nm were taken to determine bacterial growth. […] Growth curves of P. acnes determined for BPO, AFC, AFC-Sr, AFC-Ag and AFC-Zn are depicted in FIG. 3.

Molecule | % Edema Inhibition in the Mouse Ear Inflammation Assay (4% concentration) [1] | % Erythema Inhibition in the Mouse Ear Inflammation Assay (4% concentration) [2] | % MPO Inhibition in the Mouse Ear Inflammation Assay (4% concentration) ([3]; TPA-treated mouse ear) | further results
Calcium 4-((R)-1-carboxy-2-((2E,6E)-3,7,11-trimethyldodeca-2,6,10-trienylthio)ethylamino)-4-oxobutanoate [SFC-calcium complex] | +++ (“+++” indicates >50% inhibition of edema) | +++ (“+++” indicates >40% inhibition of erythema) | ++ (“++” indicates a range of 40-80%) | 
C[C@@H]1C[C@H]2[C@@H]3CCC4=CC(=O)C=C[C@]4(C)[C@@]3(F)[C@@H](O)C[C@]2(C)[C@@]1(O)C(=O)CO [Dexamethasone] |  |  |  | MPO % Inhibition ([4]; dose of 1.6 mg/20 μL): +++ (“+++” indicates >40% inhibition)
O=C(O)c1ccccc1O [Salicylic Acid] |  |  |  | MPO % Inhibition ([4]; dose of 0.4 mg/20 μL): ++ (“++” indicates a range of 20-40%)
CC(=O)N[C@@H](CSC/C=C(\C)CC/C=C(\C)CCC=C(C)C)C(=O)O [AFC-Glucosamine complex, Glucosamine (R)-2-acetamido-3-((2E,6E)-3,7,11-trimethyldodeca-2,6,10-trienylthio)propanoate] | +++ (“+++” indicates >50% inhibition of edema) |  | ++ (“++” indicates a range of 40-80%) | inhibition of edema [5]: 70.84±5.25%; inhibition of neutrophil infiltration ([3]; TPA-treated mouse ear, at the dose tested, AFC oil n=1, data not shown): 73.15±6.0%
C[C@H]1C[C@H]2[C@@H]3CCC4=CC(=O)C=C[C@]4(C)[C@@]3(F)[C@@H](O)C[C@]2(C)[C@@]1(O)C(=O)CCl [Clobetasol] |  |  |  | effect on mouse skin reepithelialization of wounds [6]: significantly delayed; MPO % Inhibition ([4]; dose of 0.1 mg/20 μL): +++ (“+++” indicates >40% inhibition)
CC(C)=CCC/C(C)=C/CC/C(C)=C/CSC[C@H](NC(=O)CCC(=O)[O-])C(=O)O.[Na+] [SFC-monosodium] | ++ (“++” indicates a range of 20-50%) | ++ (“++” indicates a range of 20-40%) | ++ (“++” indicates a range of 40-80%) | 
Strontium (R)-2-amino-3-((2E,6E)-3,7,11-trimethyldodeca-2,6,10-trienylthio)propanoate [Farnesyl Cysteine-Strontium complex] | ++ (“++” indicates a range of 20-50%) | ++ (“++” indicates a range of 20-40%) |  | 
O=C(OOC(=O)c1ccccc1)c1ccccc1 [BPO, benzoyl peroxide, reference compound] |  |  |  | IC50 ([7]; Cutibacterium acnes, ATCC6919, 72 h, read-out: IC50 (inhibition of P. acnes growth)): 161 µg/mL (≈ 665 µM)
Zinc (R)-2-acetamido-3-((2E,6E)-3,7,11-trimethyldodeca-2,6,10-trienylthio)propanoate [AFC-Zinc complex] |  |  |  | IC50 (inhibition of P. acnes growth) [7]: 9.2 µg/mL
CC(C)=CCC/C(C)=C/CC/C(C)=C/CSC[C@H](NC(=O)CCC(=O)O)C(=O)O [SFC, N-succinyl-S-farnesyl-L-cysteine] | +++ (“+++” indicates >50% inhibition of edema) | + (“+”indicates a range of 0-20%) | +++ (“+++” indicates >80% inhibition of MPO) | 
[Cl-].[Cl-].[Sr+2] [Strontium chloride, reference compound] | + (“+”indicates a range of 0-20%) | + (“+”indicates a range of 0-20%) |  | biological activity compared with AFC-strontium complex (FIG. 1) ([3]; FIG. 1, follows the MPO discussion of b517, assay not named): no significant activity
CC(C)=CCC/C(C)=C/CC/C(C)=C/CSC[C@H](NC(=O)CCC(=O)[O-])C(=O)[O-].[Na+].[Na+] [SFC-disodium] | ++ (“++” indicates a range of 20-50%) | ++ (“++” indicates a range of 20-40%) | ++ (“++” indicates a range of 40-80%) | MPO % Inhibition ([4]; dose not given): +++ (“+++” indicates >40% inhibition)
